Data reported in patent EP1800684A1, “Novel alkyl phospholipid derivatives and uses thereof” (Zentaris GmbH, priority 2005, dated 2007).
Values after ≈ are worked out from the molar mass of the structure shown.

Columns and labels:
[1] = system: Candida albicans (ATCC 10231); assay: Anti-fungal susceptibility test (microdilution), fungus A; format: cell-based; conditions: Candida albicans, ATCC10231, no visible growth after 48 hours at 35° C, read-out: MIC
Protocol: (§1) The antifungal activities of the test compounds (compounds of the invention and known prior art compounds) were measured according to standard microdilution methods (Cryptococcus/Aspergillus: Ghannoum et al., Journal of Clinical Microbiology 1992, 30 (11): 2881-2886; Candida: Reference method for broth dilution susceptibility testing of yeast: proposed standard, NCCLS document M27-P, National Committee for Clinical Laboratory Standards 1992, Villanova, Pa).
(§2) A serial dilution series starting from 64 µg/mL test compound per well down to 0.125 µg/mL test compound per well was applied for each test compound on each fungus. The MIC of each compound was defined as the concentration which produces no visible growth after 48 hours (Candida) and 72 hours (Cryptococcus, Aspergillus) of culture at 35° C.
(§3) The following fungi were assessed: • A) Candida albicans (ATCC 10231) • B) Candida albicans (ATCC 90028) • C) Candida albicans (strain TS3, Shrikantha et al., Journal of Bacteriology 2000, 182(6):1580-1591) • D) Candida parapsilosis (ATCC 22019) • E) Cryptocoocus neoformans (ATCC 90112) • F) Cryptocoocus neoformans (strain H99; Ganendren et al., Antimicrobial Agents and Chemotherapy, 2004, 48(5):1561-1569) • G) Cryptocoocus gattii (ATCC 32608) • H) Aspergillus fumigatus (ATCC 204305) • I) Aspergillus fumigatus (strain 322-384)

[2] = system: Candida albicans (ATCC 90028); assay: Anti-fungal susceptibility test (microdilution), fungus B; format: cell-based; conditions: Candida albicans, ATCC90028, no visible growth after 48 hours at 35° C, read-out: MIC
Protocol: as §1, §2, §3

[3] = system: Candida albicans (strain TS3); assay: Anti-fungal susceptibility test (microdilution), fungus C; format: cell-based; conditions: Candida albicans, no visible growth after 48 hours at 35° C, read-out: MIC
Protocol: as §1, §2, §3

[4] = system: Candida parapsilosis (ATCC 22019); assay: Anti-fungal susceptibility test (microdilution), fungus D; format: cell-based; conditions: ATCC22019, no visible growth after 48 hours at 35° C, read-out: MIC
Protocol: as §1, §2, §3

[5] = system: Cryptocoocus neoformans (ATCC 90112); assay: Anti-fungal susceptibility test (microdilution), fungus E; format: cell-based; conditions: fungus E; no visible growth after 72 hours at 35° C; read-out: MIC
Protocol: as §1, §2, §3

[6] = system: Cryptocoocus neoformans (strain H99); assay: Anti-fungal susceptibility test (microdilution), fungus F; format: cell-based; conditions: fungus F; no visible growth after 72 hours at 35° C; read-out: MIC
Protocol: as §1, §2, §3

[7] = system: Cryptocoocus gattii (ATCC 32608); assay: Anti-fungal susceptibility test (microdilution), fungus G; format: cell-based; conditions: fungus G; no visible growth after 72 hours at 35° C; read-out: MIC
Protocol: as §1, §2, §3

[8] = system: Aspergillus fumigatus (ATCC 204305); assay: Anti-fungal susceptibility test (microdilution), fungus H; format: cell-based; conditions: Aspergillus fumigatus, ATCC204305, no visible growth after 72 hours at 35° C, read-out: MIC
Protocol: as §1, §2, §3

[9] = system: Aspergillus fumigatus (strain 322-384); assay: Anti-fungal susceptibility test (microdilution), fungus I; format: cell-based; conditions: Aspergillus fumigatus, no visible growth after 72 hours at 35° C, read-out: MIC
Protocol: as §1, §2, §3

[10] = system: Trypanosoma cruzi (Tulahuan-LACZ amstigotes in PEM); assay: In vitro drug activity assay, protozoon A (amastigotes in murine peritoneal macrophages, CPRG readout); format: cell-based; conditions: infected macrophages exposed for 3 days
Protocol: Murine (CD1) peritoneal macrophages were harvested 24 hours after starch induction and dispensed into 96-well plates at a concentration of 4 x 10^5 mL. After 24 hours, the cells were infected with Trypanosoma cruzi Tulahuan LAC-Z amastigotes (grown and cultured according to Buckner et al., Infection and Immunity 1999, 67(1): 403-409). 24 hours later, the infected cells were exposed to the test compounds (compounds of the invention as well as known prior art compounds) for 3 days and 50 µL of 500 µM CPRG-1% Nonidet P-40 was added to each well. The plates were read after 2 to 5 hours at 570 nm (Buckner et al., Antimicrobial Agents and Chemotherapy 1996, 40(11): 2592-2597). ED50 values were calculated with Msxlfit (IDBS).
(§4) The following protozoa were assessed: • A) Trypanosoma cruzi (Tulahuan-LACZ amstigotes in PEM, Lorente SO et al., Antimicrobial agents and chemotherapy 2004, 48(8): 2937-2950; Buckner et al., Infection and Immunity 1999, 67(1): 403-409; Buckner et al., Antimicrobial Agents and Chemotherapy 1996, 40(11): 2592-2597) • B) Trypanosoma brucei rhodesiense (strain STIB900, Lorente SO et al., Antimicrobial agents and chemotherapy 2004, 48(8): 2937-2950; Habtemariam S, BMC Pharmacology 2003, 3:6) • C) Plasmodium falciparum (strain K1, Korsinczky M et al., Antimicrobial agents and chemotherapy 2000, 44(8): 2100-2108; Thaitong S and Beale GH, Trans. R. Soc. Trop. Med. Hyg. 1981, 75: 271-273; Trager W and Jensen JB, Science 1976, 193: 673-675) • D) Plasmodium falciparum (strain 3D7, Mu et al., PLoS Biology 2005, 3(10): e335)

[11] = system: Trypanosoma brucei rhodesiense (strain STIB900); assay: In vitro drug activity assay, protozoon B (bloodstream form trypomastigotes, Alamar Blue); format: cell-based; conditions: incubated for 72 hours
Protocol: Trypanosoma brucei rhodesiense STIB900 bloodstream form trypomastigotes were maintained in HMI-18 medium (Hirumi H, Hirumi K, J Parasitol. 1989, 75(6):985-989) with 15% heat-inactivated fetal calf serum at 37°C, 5% CO2, humidified atmosphere. Trypomastigotes were washed and resuspended in fresh medium at a concentration of 2 x 10^5 mL. Test compounds were given to the trypomastigotes and plates were incubated for 72 hours at 37°C, 5% CO2, humidified atmosphere. At 72 hours the plates were assessed microscopically before Alamar Blue was added (Raz et al., Acta Trop. 1997, 68: 139-147). Plates were read after 5 to 6 hours at EX/EM 530/585 nm with a filter cutoff at 550 nm. ED50 values were calculated with Msxlfit (IDBS).
as §4

[12] = system: Plasmodium falciparum (strain K1); assay: In vitro drug susceptibility assay, protozoon C (3[H]-hypoxanthine method); format: cell-based
Protocol: (§5) Plasmodium falciparum strain K1 and strain 3D7 parasites were cultured according to Trager W and Jensen JB (Science 1976, 193: 673-675). In vitro drug susceptibility assays with the test compounds were carried out according to Korsinczky M et al. (Antimicrobial agents and chemotherapy 2000, 44(8): 2100-2108) and Fivelman QL et al. (Antimicrobial agents and chemotherapy 2004, 48(11): 4097-4102) using a ^3[H]-hypoxanthine radioisotope method. ED50 values were calculated with Msxlfit (IDBS).
as §4

[13] = system: Plasmodium falciparum (strain 3D7); assay: In vitro drug susceptibility assay, protozoon D (3[H]-hypoxanthine method); format: cell-based
Protocol: as §5, §4

Leishmaniasis = conditions: clinical phase III trials, parenteral; cited from earlier work

CCCCCCCCCCCCCCCCOP(=O)([O-])OC1CC[N+](C)(Cc2ccccc2)CC1 (stereo not drawn) [Compound 1, Phosphoric acid 1-benzyl-1-methyl-piperidin-4-yl ester hexadecyl ester]
MIC [1]: 2 µg/mL (≈ 3.92 µM) | MIC [2]: 1 µg/mL (≈ 1.96 µM) | MIC [3]: 1.5 µg/mL (≈ 2.94 µM) | MIC [4]: 3 µg/mL (≈ 5.89 µM) | MIC [5]: 1.5 µg/mL (≈ 2.94 µM) | MIC [6]: 2 µg/mL (≈ 3.92 µM) | MIC [7]: 1 µg/mL (≈ 1.96 µM) | MIC [8]: 2 µg/mL (≈ 3.92 µM) | MIC [9]: 2 µg/mL (≈ 3.92 µM) | ED50 (µg/mL) [10]: 1,71 µg/mL | ED50 (µg/mL) [11]: 18,80 µg/mL | ED50 (µg/mL) [12]: 6,93 µg/mL | ED50 (µg/mL) [13]: 9,97 µg/mL

CCCCCCCCCCCCCCCCCCOP(=O)([O-])OC1CC[N+](CC)(CC)CC1 [Compound 5, Phosphoric acid 1,1-diethyl-piperidin-4-yl ester octadecyl ester]
MIC [1]: 2 µg/mL (≈ 4.08 µM) | MIC [2]: 2 µg/mL (≈ 4.08 µM) | MIC [3]: 2 µg/mL (≈ 4.08 µM) | MIC [4]: 3 µg/mL (≈ 6.13 µM) | MIC [5]: 1.5 µg/mL (≈ 3.06 µM) | MIC [6]: 2 µg/mL (≈ 4.08 µM) | MIC [7]: 0.75 µg/mL (≈ 1.53 µM) | MIC [8]: 6 µg/mL (≈ 12.3 µM) | MIC [9]: 8 µg/mL (≈ 16.3 µM) | ED50 (µg/mL) [10]: 1,43 µg/mL | ED50 (µg/mL) [11]: 14,20 µg/mL | ED50 (µg/mL) [12]: 21,26 µg/mL | ED50 (µg/mL) [13]: 16,31 µg/mL

NC[C@@H]1O[C@H](O[C@H]2[C@@H](O)[C@H](O[C@@H]3[C@@H](O)[C@H](N)C[C@H](N)[C@H]3O[C@H]3O[C@H](CO)[C@@H](O)[C@H](O)[C@H]3N)O[C@@H]2CO)[C@H](N)[C@@H](O)[C@@H]1O [paromomycin]
efficient in % of the cases (Leishmaniasis): 95%
